This experiment in a line: Quality of sweetness: sensory attributes scored on a 15-point unstructured line scale. The format is in vivo. Also on record: key to Stale Flavor / Metallic Flavor / Mouth Numbing / Mouthburn / Stale Aftertaste / Metallic Aftertaste / Overall Aroma / Sweet Aromatic Aroma / Stale Aroma: scores on a 15-point unstructured line scale. To be noted: mean score, 15-point line scale, two replications, room temperature; for Overall Aroma / Stale Aftertaste / Stale Aroma / Sweet Aromatic Aroma: more than 50% of responses zero; for Astringency / Bitterness / Bitterness Aftertaste / Black Licorice Aftertaste / Black Licorice Flavor / Cooling / Overall Aftertaste / Overall Flavor / Sweet Aromatic Aftertaste / Sweet Aromatic Flavor / Sweetness / Sweetness Aftertaste: same superscript letter = not significantly different (95%). The procedure: The quality of sweetness of the rebaudioside A derivative products 1 (II), 2 (IV), 3 (III), and 4 (V) also was evaluated and compared to that of rebaudioside A, rebaudioside B, rebaudioside F, and sucrose at room temperature. For each attribute, the sweeteners received a score based on a 15-point unstructured line scale. […] A multiple comparison test, Fisher's LSD 5%, aided in the comparative analysis of the scores.

Marks after values point to notes of the source that are not given here.

As for `C=C1C[C@@]23CC[C@H]4[C@@](C)(CCC[C@@]4(C)C(=O)OC4OC(CO)C(O)C(O)C4O)[C@@H]2CC[C@]1(OC1OC(CO)C(O)C(OC2OC(CO)C(O)C(O)C2O)C1OC1OC(CO)C(O)C(O)C1O)C3` (stereo partly drawn) [Reb. A, Rebaudioside A], the “Metallic Aftertaste” value is 0.80, the “Metallic Flavor” value was found to be 0.97, the “Mouth Numbing” value is 0.76 and the Mouthburn stood at 1.29. The “Stale Flavor” value came out at 0.89, the “Overall Aroma” value is 0.16, the “Stale Aftertaste” value worked out at 0.48 and the “Stale Aroma” value is 0.00. The “Sweet Aromatic Aroma” value is recorded as 0.14, the Astringency is 3.14^ab, the Bitterness is given as 3.43^a and the “Bitterness Aftertaste” value is listed as 2.21^a. Further, the “Black Licorice Aftertaste” value is reported as 1.47^a, the “Black Licorice Flavor” value is 2.31^a, the Cooling was 1.10^a and the “Overall Aftertaste” value was 6.34^a. The “Overall Flavor” value is recorded as 9.88^a, the “Sweet Aromatic Aftertaste” value was 0.50^bcd, the “Sweet Aromatic Flavor” value was 0.71^ab and the Sweetness is reported as 9.59^a. For the same compound, the “Sweetness Aftertaste” value is 5.91^a.
As to “rebaudioside B [Reb. B, reference compound]”, the “Metallic Aftertaste” value stood at 0.47, the “Metallic Flavor” value was 0.82, the “Mouth Numbing” value is 0.54 and the Mouthburn is given as 0.97. For the same compound, the “Stale Flavor” value is 0.92, the “Overall Aroma” value was 0.28, the “Stale Aftertaste” value turned out to be 0.63 and the “Stale Aroma” value is 0.26. Also, the “Sweet Aromatic Aroma” value stood at 0.00, the Astringency was 2.79^bc, the Bitterness is 1.72^de and the “Bitterness Aftertaste” value is given as 1.07^d. For the same compound, the “Black Licorice Aftertaste” value is 0.80^b, the “Black Licorice Flavor” value is recorded as 0.89^c, the Cooling is 0.57^b and the “Overall Aftertaste” value is listed as 3.54^c. Further, the “Overall Flavor” value was 4.20^c, the “Sweet Aromatic Aftertaste” value is 0.46^bcd, the “Sweet Aromatic Flavor” value was 0.54^abc and the Sweetness was 3.55^c. Further, the “Sweetness Aftertaste” value is reported as 3.11^c.
“rebaudioside F [Reb. F, reference compound]”: the “Metallic Aftertaste” value stood at 0.88, the “Metallic Flavor” value was 1.13, the “Mouth Numbing” value is 0.98 and the Mouthburn was found to be 1.35. In addition, the “Stale Flavor” value came out at 1.14, the “Overall Aroma” value stood at 0.29, the “Stale Aftertaste” value is on record as 0.81 and the “Stale Aroma” value is 0.00. Moreover, the “Sweet Aromatic Aroma” value is on record as 0.18, the Astringency is recorded as 3.28^a, the Bitterness was 2.64^bc and the “Bitterness Aftertaste” value is reported as 1.70^bc. For the same compound, the “Black Licorice Aftertaste” value is 0.75^b, the “Black Licorice Flavor” value is recorded as 0.88^c, the Cooling is 0.57^b and the “Overall Aftertaste” value is listed as 3.89^c. The “Overall Flavor” value was 5.38^b, the “Sweet Aromatic Aftertaste” value was 0.46^bcd, the “Sweet Aromatic Flavor” value is 0.59^abc and the Sweetness is listed as 4.98^b. Also, the “Sweetness Aftertaste” value is on record as 3.34^c.
